Experimental data published in PMC10472371, “Discovery of E2730, a novel selective uncompetitive GAT1 inhibitor, as a candidate for anti‐seizure medication” (Epilepsia Open, 2023).

Columns and labels:
[1] = system: amygdala kindling rats; assay: Amygdala kindling in rats; assay type: in vivo, rat
Excerpt: A tripolar electrode was implanted into the basolateral amygdala of Wistar‐Kyoto rats (male, 7 weeks old; Charles River Laboratories Japan, Japan). After at least 5 days of recovery, the amygdala was stimulated using an electronic stimulator at currents starting at 0.04 mA (50 Hz, 1 millisecond monophasic square‐wave pulses, 1‐second duration each) then increasing by 25% to a 30‐second duration until the after‐discharge threshold (ADT) was attained. ADT was defined as the current at which abnormal electroencephalogram and at least Racine's stage‐1 seizure behavior were observed. In the Racine's stage, seizure severity was classified as: 1, mouth and facial movements; 2, head nodding; 3, forelimb clonus; 4, rearing; 5, rearing and falling. From the next day onwards, electrical stimulation at the previously determined ADT was performed once daily in each rat. The rats showing ≥3 consecutive Racine stage‐5 seizures were deemed epileptic and used for drug evaluation. The pre‐ADT (i.e. baseline) seizure threshold of each rat was established prior to drug administration. After >1 hour following the determination of pre‐ADT seizure threshold, E2730 (5–50 mg/kg), levetiracetam (25 mg/kg), or vehicle was orally administered to the rats. One hour after the administration, the post‐ADT seizure threshold of each rat was ascertained, and the ratios of post‐ADT to pre‐ADT readings were analyzed.

[2] = system: Scn1a+/- mice; assay: Hyperthermia-induced seizures in Scn1a+/- mice (Dravet syndrome model); assay type: in vivo, mouse
Description: Scn1a heterozygous mutant (Scn1a ^+/−) mice, a model of Dravet Syndrome (DS), and the littermate wild‐type (Scn1a ^+/+) mice (male, 24–28 days postnatal; Jackson Laboratory, US) received E2730 (10, 20 mg/kg) or vehicle orally 1 hour before hyperthermia stimulation. A rectal temperature probe (Physitemp, NJ) was fitted at 50 minutes post‐treatment, and mice were acclimated to the probe and test chamber for 10 minutes. At 1‐hour post‐treatment, core body temperature was elevated by a heat lamp connected to a feedback temperature controller (Physitemp) by 0.5°C every 2 minutes until a maximum of 42.5°C was reached. The threshold body temperatures for generalized tonic–clonic seizures were recorded for each mouse. The cut‐off time was set as 180 seconds.

[3] = molecular target: T1, rat brain synaptosomal membranes (Rattus norvegicus, UniProt P23978); assay: Saturation binding of [3H]E2730 in rat brain synaptosomal membranes; conditions: [3H]E2730, Scatchard plot
T1 construct: Synaptosomal membranes were prepared using the whole brain without cerebellum, brainstem, or olfactory bulb; from tissue; host or cells: rat whole brain without cerebellum, brainstem or olfactory bulb; synaptosomal membranes
Description: (§1) Synaptosomal membranes were prepared using the whole brain without cerebellum, brainstem, or olfactory bulb from Sprague Dawley rats (male, 7 weeks old) or human cerebral cortex based on Fuks et al.[10] and Hanada et al.[11] Synaptosomal membranes (0.4 mg protein/tube) were incubated with 9.8–5000 nM [^3H]E2730 for 120 minutes at 4°C. Non‐specific binding was defined as the residual binding observed in the presence of 1 mM unlabeled E2730. […] The filters were washed three times with ice‐cold 50 mM Tris–HCl buffer (pH 7.4) and incubated overnight in a scintillator (PerkinElmer), then the radioactivity was measured by a liquid scintillation counter (PerkinElmer).

[4] = molecular target: T2, human brain synaptosomal membranes (Homo sapiens, UniProt P30531); assay: Saturation binding of [3H]E2730 in human brain synaptosomal membranes
T2 construct: from tissue; host or cells: human cerebral cortex; synaptosomal membranes
T2 sequence (P30531 whole entry): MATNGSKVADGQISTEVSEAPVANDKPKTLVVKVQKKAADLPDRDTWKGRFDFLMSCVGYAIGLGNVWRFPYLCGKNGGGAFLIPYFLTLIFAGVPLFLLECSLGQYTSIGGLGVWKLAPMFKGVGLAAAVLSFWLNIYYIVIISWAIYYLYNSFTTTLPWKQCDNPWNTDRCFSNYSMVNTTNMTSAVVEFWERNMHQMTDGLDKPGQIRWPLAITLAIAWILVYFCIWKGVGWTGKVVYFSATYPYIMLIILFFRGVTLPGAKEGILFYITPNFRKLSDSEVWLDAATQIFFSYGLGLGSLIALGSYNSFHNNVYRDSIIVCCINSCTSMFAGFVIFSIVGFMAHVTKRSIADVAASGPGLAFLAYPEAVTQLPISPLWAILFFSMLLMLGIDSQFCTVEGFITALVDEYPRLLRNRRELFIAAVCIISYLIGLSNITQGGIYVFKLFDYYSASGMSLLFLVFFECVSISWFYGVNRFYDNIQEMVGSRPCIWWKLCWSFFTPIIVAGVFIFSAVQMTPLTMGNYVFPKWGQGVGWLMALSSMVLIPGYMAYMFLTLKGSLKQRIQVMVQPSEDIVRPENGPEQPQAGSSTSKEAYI
Description: as §1

[5] = molecular target: T1, rat brain synaptosomal membranes; assay: Competitive displacement of [3H]E2730 binding with ASMs; conditions: 20 nM [3H]E2730; unlabeled E2730 0.1-10 μM; ASMs at 10-3000 μM
Description: Unlabeled E2730 (0.1–10 μM) was also assessed to confirm a representative displacement. Non‐specific binding was defined as the residual binding observed in the presence of 1 mM unlabeled E2730. Radioactivity of the synaptosome‐bound radioligand was measured in the same way as described above.

[6] = molecular target: T3, hGAT1 (Homo sapiens, UniProt P30531); assay: [3H]GABA uptake in hGAT1 stably expressing HEK293 cells; assay type: cell-based; conditions: 50 μM [3H]GABA
T3 construct: expressed in transfected cells; host or cells: HEK293
T3 sequence (P30531 whole entry): as above
Description: (§2) HEK293 cells stably expressing human GAT1 (hGAT1), GAT2 (hGAT2), GAT3 (hGAT3), or betaine/GABA transporter 1 (hBGT‐1) were plated onto 96‐well microtiter plates at a density of 4.0 × 10^4 cells/well in Dulbecco's Modified Eagle's Medium (DMEM, containing 10% fetal bovine serum, 100 units/mL penicillin, 100 μg/mL streptomycin, 1% non‐essential amino acid solution, and 25 mM HEPES) and incubated overnight at 37°C in a 5% CO2 atmosphere. After washing the cells with Hanks’ balanced salt solution (HBSS, containing 140 mg/L CaCl2, 100 mg/L MgCl2, 20 mM HEPES, and 10 mM NaOH), E2730 (0.0128–1000 μM) was added to the plate. Following the addition of 50 μM [^3H]GABA, cells were incubated for 5 minutes at 37°C in a 5% CO2 atmosphere and then washed with cold HBSS. Washed cells were incubated in a scintillator for 1 hour at room temperature, followed by radioactivity measurements using a liquid scintillation counter.

[7] = molecular target: T4, hGAT2 (Homo sapiens, UniProt Q9NSD5); assay: [3H]GABA uptake in hGAT2 stably expressing HEK293 cells; assay type: cell-based; conditions: 50 μM [3H]GABA
T4 construct: expressed in transfected cells; host or cells: HEK293
T4 sequence (Q9NSD5 1-602): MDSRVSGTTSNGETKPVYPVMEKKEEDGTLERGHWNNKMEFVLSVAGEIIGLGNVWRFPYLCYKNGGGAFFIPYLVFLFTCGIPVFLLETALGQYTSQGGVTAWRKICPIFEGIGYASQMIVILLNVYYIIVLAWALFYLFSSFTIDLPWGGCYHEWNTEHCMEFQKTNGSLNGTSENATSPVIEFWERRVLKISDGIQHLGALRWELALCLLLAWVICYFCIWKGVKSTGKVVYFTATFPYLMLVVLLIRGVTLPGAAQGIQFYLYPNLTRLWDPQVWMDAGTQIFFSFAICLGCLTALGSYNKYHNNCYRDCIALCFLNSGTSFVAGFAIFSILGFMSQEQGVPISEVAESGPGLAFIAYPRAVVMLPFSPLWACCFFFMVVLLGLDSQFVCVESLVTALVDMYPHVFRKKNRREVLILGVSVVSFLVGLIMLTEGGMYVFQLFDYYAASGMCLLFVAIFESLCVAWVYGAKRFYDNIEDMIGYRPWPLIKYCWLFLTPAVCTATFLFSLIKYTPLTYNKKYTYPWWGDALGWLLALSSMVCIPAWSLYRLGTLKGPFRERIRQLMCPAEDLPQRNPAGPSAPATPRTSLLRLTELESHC
Description: as §2

[8] = system: panel of 86 receptors, transporters, and ion channels; assay: Binding panel assay; conditions: tested at 30 and 300 μM
Description: In this binding panel assay, E2730 was tested at 30 and 300 μM.

## NS(=O)(=O)N[C@H]1c2c(F)cc(F)cc2CC1(F)F [E2730]
[1]; E2730 10 mg/kg oral, 1 hour after administration
  post-ADT/pre-ADT ratio: 129%
[1]; E2730 20 mg/kg oral
  post-ADT/pre-ADT ratio: 159%
[1]; E2730 50 mg/kg oral
  post-ADT/pre-ADT ratio: 191%
[1]; oral, footnote a: minimum effective dose
  Minimum effective dose, amygdala kindling (rat): 10 mg/kg
[2]; 20 mg/kg, maximum temperature of 42.5°C
  seizure occurrence in littermate WT (Scn1a+/+) mice: No seizures occurred
[2]; Scn1a+/- mice, 10 mg/kg oral
  median threshold body temperature for generalized tonic-clonic seizures: 41.2 °C
[2]; Scn1a+/- mice, 20 mg/kg oral
  median threshold body temperature for generalized tonic-clonic seizures: 42.4 °C
[2]; Scn1a+/- mice, oral, footnote a: minimum effective dose
  Minimum effective dose, hyperthermia-induced seizures: 10 mg/kg
[3]
  Bmax: 3419 fmol/mg protein
  Kd: 0.553 µM
[4]
  Bmax: 2503 fmol/mg protein
  Kd: 0.71 µM
[5]
  displacement of [3H]E2730 binding: displaced the radiolabeled [^3H]E2730 in a concentration‐dependent manner
[6]
  IC50: 1.1 µM
[7]
  IC50: > 1000 µM
[8]
  binding in panel assay: no significant binding
